Measurements taken from patent publication US12063929B2, “3′-alkynyl abscisic acid derivatives as ABA antagonists” (University of Saskatchewan, priority 2018, dated 2024).

Assays:
Format in all cases: in vivo
Lentil (CDC Maxim) = Lentil (CDC Maxim) seed germination assay; details: for antagonist activity, lentil germination: 10 uM versus 10 uM ABA; for antagonist activity, lentil germination / agonist activity, lentil germination: data not shown; for agonist activity, lentil germination: 10 uM; for lentil seed germination, antagonism of ABA: 10 μM ABA plus 10 μM compound (FIG. 6C)
Procedure: 40 seeds were counted for each 100×15 mm petri dishes. Each petri dish contained two filter papers and 10 mL of test solutions. Then, they were wrapped with aluminium foil to cut off light. Wrapped plates were kept on lab bench at room temperature. Germinated seeds were counted everyday until one treatment reaches 100% germination (two days). Only light exposure was during plate counting. […]
All seeds from this experiment have been rinsed first with tap water and then with dH2O, frozen in liquid nitrogen and stored at −80° C. freezer.

Hard Red Spring wheat = Hard Red Spring wheat seedling growth (root and shoot length); details: 10 μM ABA, 72 h
Procedure: For each treatment 3 replicates of 10 seeds were plated into petri dishes lined with two filter papers and 10 mL of test solution. The covered dishes were stored at room temperature in the dark. At 72 hours, germinated seeds were scored for root length and shoot length. The following dosages were used when studying the effect of the exemplary ABA analogues of the application on wheat shoot and root growth: control 1% DMSO. 10 μM ABA, 10 μM 1019, 100 μM exemplary compound 1019, 10 μM exemplary compound 1019 plus 10 μM ABA […] and 100 μM exemplary compound 1019 plus 10 μM ABA […].

[1] = test system: Canola seed (Nutrien PV200); experiment: Canola seed germination assay; details: 10 μM ABA, 8 day study (FIG. 10)
Procedure: For each treatment 6 replicates of 40 seeds were plated into petri dishes lined with two filter papers and 10 mL of test solution. The covered dishes were stored at room temperature in the dark. Germinated seeds were counted every 2 days for 8 days. The following dosages were used when studying the effect of exemplary compounds on canola germination: control 1% DMSO. 10 μM ABA, 100 μM 1019, and 100 μM 1019 plus 10 μM ABA.

[2] = 100 μM compound, in the presence of 10 μM ABA (FIG. 5)
[3] = 100 μM compound alone, compared to control (FIG. 6A)
[4] = 100 μM compound plus 10 μM ABA (FIG. 6B)

For `CC1=CC(=O)CC(C)(C)[C@@]1(O)/C=C/C(C)=C\C(=O)O` [ABA, (2Z,4E)-5-[(1S)-1-hydroxy-2,6,6-trimethyl-4-oxocyclohex-2-en-1-yl]-3-methylpenta-2,4-dienoic acid, reference compound], which lentil seed germination (Lentil (CDC Maxim); 10 uM ABA alone, day one (FIG. 3A)) is on record?
The lentil seed germination was “completely inhibited”.

And the shoot growth (Hard Red Spring wheat)?
Its shoot growth is “inhibited”.

What about the canola seed germination [1] of the same compound?
Its canola seed germination is “inhibited seed germination”.

For `CCc1ccc(C#CC2=C(C)[C@](O)(/C=C/C(C)=C\C(=O)O)C(C)(C)CC2=O)cc1` [Compound 1025, (2Z,4E)-5-((S)-3-((4-Ethylphenyl)ethynyl)-1-hydroxy-2,6,6-trimethyl-4-oxocyclohex-2-en-1-yl)-3-methylpenta-2,4-dienoic acid], which lentil seed germination (Lentil (CDC Maxim); compound at 1 uM) is on record?
The lentil seed germination was “most highly promoted”.

`CCC(O)(C#CC1=C(C)[C@](O)(/C=C/C(C)=C\C(=O)O)C(C)(C)CC1=O)CC` [Compound 1059, (2Z,4E)-5-((S)-3-(3-ethyl-3-hydroxypent-1-yn-1-yl)-1-hydroxy-2,6,6-trimethyl-4-oxocyclohex-2-en-1-yl)-3-methylpenta-2,4-dienoic acid] was tested. Which “antagonist activity, lentil germination” value (Lentil (CDC Maxim)) did it give?
The value was “weak antagonist activity”.

What about the “agonist activity, lentil germination” value (Lentil (CDC Maxim)) of the same compound?
The value was “no agonist activity”.

`CC1=C(C#C/C(C)=C\CO)C(=O)CC(C)(C)[C@@]1(O)/C=C/C(C)=C\C(=O)O` [Compound 1063, (2Z,4E)-5-((S)-1-hydroxy-3-((Z)-5-hydroxy-3-methylpent-3-en-1-yn-1-yl)-2,6,6-trimethyl-4-oxocyclohex-2-en-1-yl)-3-methylpenta-2,4-dienoic acid] was tested. Which “antagonist activity, lentil germination” value (Lentil (CDC Maxim)) did it give?
Its value is “weak antagonist activity”.

And the “agonist activity, lentil germination” value (Lentil (CDC Maxim))?
The value was “no agonist activity”.

`CC1=C(c2ccccc2)C(=O)CC(C)(C)[C@@]1(O)/C=C/C(C)=C\C(=O)O` [Compound 1080, (2Z,4E)-5-((S)-3-hydroxy-2,4,4-trimethyl-6-oxo-3,4,5,6-tetrahydro-′[1,1′-biphenyl]-3-yl)-3-methylpenta-2,4-dienoic acid] was tested. Which lentil seed germination (Lentil (CDC Maxim); [2]) did it give?
Its lentil seed germination is “weakly promoted”.

`CC1=C(/C=C/c2ccccc2)C(=O)CC(C)(C)[C@@]1(O)/C=C/C(C)=C\C(=O)O` [Compound 1090, (2Z,4E)-5-((S)-1-hydroxy-2,6,6-trimethyl-4-oxo-3-((E)-styryl)cyclohex-2-en-1-yl)-3-methylpenta-2,4-dienoic acid] was tested. Which lentil seed germination (Lentil (CDC Maxim); [2]) did it give?
The lentil seed germination was “promoted”.

What does the source list for `CC1=C(C#Cc2ccc(O)cc2)C(=O)CC(C)(C)[C@@]1(O)/C=C/C(C)=C\C(=O)O` [Compound 1091, (2Z,4E)-5-((S)-1-hydroxy-3-((4-hydroxyphenyl)ethynyl)-2,6,6-trimethyl-4-oxocyclohex-2-en-1-yl)-3-methylpenta-2,4-dienoic acid]?
lentil seed germination, antagonism of ABA (Lentil (CDC Maxim)): effective antagonists; lentil seed germination (Lentil (CDC Maxim); [3]): no effect; lentil seed germination (Lentil (CDC Maxim); [4]): overcame the effect

For `CC1=C(C#CC2CCCCC2)C(=O)CC(C)(C)[C@@]1(O)/C=C/C(C)=C\C(=O)O` [Compound 1100, (2Z,4E)-5-((S)-3-(cyclohexylethynyl)-1-hydroxy-2,6,6-trimethyl-4-oxocyclohex-2-en-1-yl)-3-methylpenta-2,4-dienoic acid], which “lentil seed germination, antagonism of ABA” value (Lentil (CDC Maxim)) is on record?
Its value is “effective antagonists”.

What about the lentil seed germination (Lentil (CDC Maxim); [3]) of the same compound?
The lentil seed germination was “no effect”.

What about the lentil seed germination (Lentil (CDC Maxim); [4]) of the same compound?
Its lentil seed germination is “overcame the effect”.
